The results in this text go back to ChEMBL document CHEMBL3886715, “Tetrahydroisoquinoline derivatives, pharmaceutical compositions and uses thereof” (2016).

The target in the assay is Acetyl-CoA carboxylase 2 (Homo sapiens, UniProt O00763). Briefly: Spectrophotometric 384 Well Assay: Assay reactions are then carried out in 384-well plates, with hACC2 in an appropriate dilution and at final assay concentrations (f.c.) of 100 mM Tris (pH 7.5), 10 mM trisodium citrate, 25 mM KHCO3, 10 mM MgCl2, 0.5 mg/ml BSA, 3.75 mM reduced L-glutathione, 15 U/ml lactate dehydrogenase, 0.5 mM phosphoenolpyruvate, 15 U/ml pyruvate kinase, compounds at different concentrations at final DMSO concentrations of 1%.The enzymatic reaction is then started by addition of a mixture of NADH, acetyl Coenzyme A (both […].) and ATP (500 uM f.c.). The decrease of the optical density (slope S) is then determined at 25° C. at a wavelength of 340 nm over 15 minutes in a spectrophotometric reader.Each assay microtiter plate contains wells with vehicle instead of compound as controls for the non-inhibited enzyme (100% CTL; HIGH) and wells without acetyl-CoA as controls for non-specific NADH degradation (0% CTL; LOW).
Sequence of Acetyl-CoA carboxylase 2 (O00763 whole entry): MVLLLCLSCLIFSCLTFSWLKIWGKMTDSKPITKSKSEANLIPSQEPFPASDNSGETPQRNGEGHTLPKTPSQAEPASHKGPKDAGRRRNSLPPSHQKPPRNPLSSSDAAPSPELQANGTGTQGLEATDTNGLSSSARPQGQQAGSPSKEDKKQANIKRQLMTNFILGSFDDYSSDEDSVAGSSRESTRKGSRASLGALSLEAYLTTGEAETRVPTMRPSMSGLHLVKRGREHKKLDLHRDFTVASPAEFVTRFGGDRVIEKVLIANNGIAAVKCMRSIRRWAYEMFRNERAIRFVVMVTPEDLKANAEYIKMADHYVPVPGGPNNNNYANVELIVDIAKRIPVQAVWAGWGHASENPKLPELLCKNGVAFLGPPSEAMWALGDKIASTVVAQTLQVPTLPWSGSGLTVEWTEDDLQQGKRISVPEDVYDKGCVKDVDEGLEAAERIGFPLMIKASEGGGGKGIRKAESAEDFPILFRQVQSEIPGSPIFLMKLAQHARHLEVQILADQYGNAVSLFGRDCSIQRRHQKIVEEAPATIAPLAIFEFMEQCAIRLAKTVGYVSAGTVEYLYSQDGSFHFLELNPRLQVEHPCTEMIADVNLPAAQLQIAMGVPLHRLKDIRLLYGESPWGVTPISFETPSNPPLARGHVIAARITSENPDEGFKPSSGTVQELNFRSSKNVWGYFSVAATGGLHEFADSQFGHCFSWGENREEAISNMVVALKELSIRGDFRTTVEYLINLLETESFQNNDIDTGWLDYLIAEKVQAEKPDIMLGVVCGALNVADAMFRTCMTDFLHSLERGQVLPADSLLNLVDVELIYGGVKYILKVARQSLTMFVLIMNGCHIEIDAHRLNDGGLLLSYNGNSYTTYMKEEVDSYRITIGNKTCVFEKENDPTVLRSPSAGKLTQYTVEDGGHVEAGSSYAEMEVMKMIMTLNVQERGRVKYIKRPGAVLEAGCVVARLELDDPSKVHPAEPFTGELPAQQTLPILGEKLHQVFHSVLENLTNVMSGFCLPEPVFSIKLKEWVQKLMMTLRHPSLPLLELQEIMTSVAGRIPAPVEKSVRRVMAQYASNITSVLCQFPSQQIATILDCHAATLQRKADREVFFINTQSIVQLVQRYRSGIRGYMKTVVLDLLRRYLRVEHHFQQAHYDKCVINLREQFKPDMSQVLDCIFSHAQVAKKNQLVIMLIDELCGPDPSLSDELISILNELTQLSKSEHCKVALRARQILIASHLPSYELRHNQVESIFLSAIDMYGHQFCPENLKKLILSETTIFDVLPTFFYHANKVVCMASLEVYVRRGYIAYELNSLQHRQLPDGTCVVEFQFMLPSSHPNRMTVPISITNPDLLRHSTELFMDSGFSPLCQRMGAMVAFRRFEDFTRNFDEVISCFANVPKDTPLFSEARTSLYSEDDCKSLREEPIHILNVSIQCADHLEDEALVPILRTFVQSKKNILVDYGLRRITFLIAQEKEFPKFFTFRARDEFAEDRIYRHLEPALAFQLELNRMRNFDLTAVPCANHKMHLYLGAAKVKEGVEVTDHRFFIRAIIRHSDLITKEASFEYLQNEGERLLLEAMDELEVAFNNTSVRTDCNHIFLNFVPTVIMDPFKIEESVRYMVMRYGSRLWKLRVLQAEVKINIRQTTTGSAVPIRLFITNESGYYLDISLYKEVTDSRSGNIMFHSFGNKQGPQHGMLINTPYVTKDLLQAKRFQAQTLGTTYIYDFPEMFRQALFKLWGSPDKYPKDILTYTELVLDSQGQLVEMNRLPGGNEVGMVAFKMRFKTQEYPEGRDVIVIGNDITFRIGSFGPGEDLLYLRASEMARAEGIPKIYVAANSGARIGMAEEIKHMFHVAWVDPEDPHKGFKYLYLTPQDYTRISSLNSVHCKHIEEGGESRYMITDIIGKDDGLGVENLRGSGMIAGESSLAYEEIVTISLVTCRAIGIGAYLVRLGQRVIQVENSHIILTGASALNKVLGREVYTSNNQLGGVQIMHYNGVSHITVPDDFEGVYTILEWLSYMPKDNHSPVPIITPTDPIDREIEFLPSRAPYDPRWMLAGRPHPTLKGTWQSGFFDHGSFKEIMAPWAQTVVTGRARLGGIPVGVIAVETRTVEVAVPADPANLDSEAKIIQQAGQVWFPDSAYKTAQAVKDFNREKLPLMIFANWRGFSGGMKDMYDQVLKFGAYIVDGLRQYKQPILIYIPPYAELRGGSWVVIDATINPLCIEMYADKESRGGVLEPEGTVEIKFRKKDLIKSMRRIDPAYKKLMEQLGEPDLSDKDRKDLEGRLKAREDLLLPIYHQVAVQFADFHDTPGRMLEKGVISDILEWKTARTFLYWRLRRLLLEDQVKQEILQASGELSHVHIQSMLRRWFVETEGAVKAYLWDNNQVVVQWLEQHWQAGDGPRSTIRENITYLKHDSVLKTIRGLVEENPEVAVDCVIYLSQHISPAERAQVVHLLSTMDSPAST

The term IC50 denotes the concentration that inhibits the measured activity by half. With `CC(=O)N[C@@H](C)c1ccc(CN2CCc3cc(OCC4CC4)ccc3C2C(=O)O)cc1` (some centres not stated), the IC50 is 806 nM. The result for `C[C@H](NC(=O)N(C)C)c1ccc(CN2Cc3ccc(OCC4CC4)cc3C(F)C2)cc1` (some centres not stated) reads 22 nM.
